Test results as given in US20150258059A1, “ANTIMICROBIAL AND RADIOPROTECTIVE COMPOUNDS” (BioDiem, Ltd, priority 2001, published 2015).
Values after ≈ are worked out from the molar mass of the structure shown. Where two headings read alike, the source gives them in different places. Marks after values point to notes of the source that are not given here.

Key:
C. jejuni 541-3 = assay: MIC/MMC against clinical strains of Campylobacter spp.; conditions: Table 18; clinical strain isolated from humans
Alkaligenes sp. B-689 = assay: Sensitivity of strains: suppression of growth; format: cell-based; conditions: Compound (1) 1.0%; antibiotics disc method
Fusarium graminearum [1] = assay: microbe, parasite or virus in culture; format: cell-based; conditions: 48 h
Epidermophyton floccosum = assay: NCCLS broth macro-dilution MIC/MFC (RPMI); format: cell-based; conditions: Table 10, 7 day, 30° C.
E. coli = assay: MIC by solvent of formulation; conditions: for MIC: Escherichia coli
[2] = system: Salmonella intraperitoneally; assay: Anti-bacterial activity in vivo, infected mice; conditions: schedule −1, 0, +1, +2, +3; 200 mg/kg intrmuscularly
Acinetobacter B-681 = assay: Agar diffusion assay
[3] = system: Staphylococcus epidermidis BK-30; assay: Sensitivity of strains: suppression of growth; format: cell-based; conditions: Compound (1) 1.0%; antibiotics disc method
[4] = system: Salmonella typhimurium M-727; assay: Sensitivity of strains: suppression of growth; format: cell-based; conditions: Compound (1) 1.0%; antibiotics disc method
[5] = system: Corynebacterium xerosis RMIT; assay: NCCLS broth microdilution MIC/MBC; format: cell-based; conditions: for MIC: Corynebacterium xerosis
Fusarium graminearum [6] = assay: microbe, parasite or virus in culture; format: cell-based
[7] = Blood levels after single-dose oral administration, UV spectroscopy; format: in vivo, Sprague-Dawley rats; conditions: for concentration at 4 h / concentration at 8 h: Sprague-Dawley, rat, serum, oral, read-out: Blood Level of Compound (1), Mean
Method: The aim of this example was to establish absorption and blood levels of Compound (1) in the rat after a single-dose, oral administration.
Sprague-Dawley rats (6 w/o, delivered 30 Jan, 2001) were acclimatized for 6 days in the Animal Facility under standardized environmental conditions (22° C. ±3° C., rel hum 30-70%, artificial light, 12 hrs light/12 hrs dark). Rats were fed a conventional laboratory diet with food and water ad lib and caged 5 rats per cage.
Compound (1) was prepared as an aqueous suspension in sterile LPW. At higher concentrations the suspension was sonicated to reduce particle size sufficiently to pass through the gavage needle.
Compound (1) suspensions and the water control were administered at approx […], in a single. One control and five treatment rats were weighed immediately before each dose administration, the dose volume calculated and the dose delivered by gavage (22 gauge stainless steel, smooth-balled end attached to a syringe).
Approximately 100-200 μL of blood (microfuge tube) was removed from the tail at 4 and 8 hours. Tails were prewarmed using a heat lamp and snipped at the tip with a large scalpel. Blood was massaged into a microfuge tube. Twenty four hour blood samples were not attempted because of the difficulty of snipping scarred tails and the distress caused to rats.
Blood was allowed to clot, centrifuged in a microfuge for 3 minutes (speed 14) and the serum separated and stored at −20° C.
Samples for treatment groups and for controls were thus pooled and a mean level of Compound (1) for each treatment group determined.
Compound (1) was extracted (x2) from serum by toluene and absorbance measured at 370 nm (Hitachi U2000). A spiked control using 100 μg/mL Compound (1) in 50% methanol/water (V/V) and untreated controls were also assayed.

Aspergillus fumigatus = assay: M38-P microdilution MIC/MFC; format: cell-based; conditions: Table 16, 48 h, 35° C.
[8] = system: Streptococcus pneumonia ATCC49619; assay: NCCLS broth microdilution MIC/MBC; format: cell-based; conditions: Table 9, 35° C., 24 hours
[9] = system: S. aureus-clinical isolate 1; assay: microbe, parasite or virus in culture; format: cell-based
Source text: (§1) NCCLS-USA Standard Method—Broth microdilution (or macrodilution) (Mueller-Hinton).
(§2) Inoculum 1-4×10^4 cfu (or −4×10^5 cfu). Ciprofloxacin test control. Chlorhexidine values added for disinfectant and antiseptic activity comparison.

[10] = system: S. aureus-clinical isolate 2; assay: microbe, parasite or virus in culture; format: cell-based
Source text: as §1, §2

[11] = system: Staphylococcus aureus strain 674; assay: Impregnated agar serial double dilutions; conditions: meat peptone agar
Haemophilus influenzae = assay: NCCLS broth microdilution MIC/MBC; format: cell-based
[12] = system: Staphylococcus aureus B-674; assay: Sensitivity of strains: suppression of growth; format: cell-based; conditions: Compound (1) 1.0%; antibiotics disc method
Paecilomyces variotii = assay: M38-P microdilution MIC/MFC; format: cell-based; conditions: Table 16, 48 h, 35° C.
Enterococcus faecalis = assay: Rate of kill, viable counts; conditions: 512 μg/mL; at 9 h
[13] = system: Citrobacter diversus B-678; assay: Sensitivity of strains: suppression of growth; format: cell-based; conditions: Compound (1) 1.0%; antibiotics disc method
Rhodotorula rubra = assay: microbe, parasite or virus in culture; format: cell-based; conditions: for MIC: Rhodotorula
[14] = Table 19, 24 H, 35° C., O2-MICRO METHOD

In the case of `C/C(=C\c1ccc2c(c1)OCO2)[N+](=O)[O-]` [Compound (1)], the MMC (C. jejuni 541-3) is reported as 2, the “Suppression of Growth (+/−)” value (Alkaligenes sp. B-689) is reported as “+” and the MIC (Fusarium graminearum [1]; Fusarium graminearum) is reported as 4 µg/mL (≈ 19.3 µM). For the same compound, the MMC (Fusarium graminearum [1]; Table 16, M38-P, 35° C.) was 8 µg/mL, the MIC (Epidermophyton floccosum; Epidermophyton floccosum, 168 h) was 0.5 µg/mL (≈ 2.41 µM) and the MMC (Epidermophyton floccosum) was 16 µg/mL. The “times more active in ethanol than in DMSO” value (E. coli) was “at least 8 times”, the MIC (E. coli; 2.5% DMSO) was over 512 µg/mL and the MIC (E. coli; formulated in ethanol (0.06% ETON)) was 128 µg/mL (≈ 618 µM). For the same compound, the “Cumulative mortality (test)” value [2] was 47, the “Incubation period days (test)” value [2] was 0 days and the “Diameter of zone of Growth inhibition” value (Acinetobacter B-681; Concentration in disc 0.1%) was 32# mm. For the same compound, the “Diameter of zone of Growth inhibition” value (Acinetobacter B-681; Concentration in disc 1.0%) was 35# mm, the “Diameter of zone of Growth inhibition” value (Acinetobacter B-681; Concentration in disc 2.0%) was 38# mm and the “Suppression of Growth (+/−)” value [3] was “+”. For the same compound, the “Suppression of Growth (+/−)” value [4] was “+”, the MIC ([5]; Table 9, 35° C., 24 hours) was 32.2 µg/mL (≈ 155 µM) and the MIC ([5]; Table 17, 2 or 3 replicates) was 32 µg/mL (≈ 154 µM). For the same compound, the MMC ([5]; Table 9, 35° C., 24 hours) was 32.16 µg/mL, the MMC ([5]; Table 17, 2 or 3 replicates) was 32 µg/mL and the MIC (Fusarium graminearum [6]; Fusarium graminearum, 168 h) was 4 µg/mL (≈ 19.3 µM). The MMC (Fusarium graminearum [6]; Table 10, 7 day, 30° C.) was 8 µg/mL, the “Blood Level of Compound (1), Mean” value ([7]; 1250 mg/kg, 4 + 8 h) was 27000 ng/mL and the concentration at 4 h ([7]; 500 mg/kg, 500 mg/kg fasted) was 12000 ng/mL. The concentration at 8 h ([7]; 500 mg/kg, 500 mg/kg fasted) was 14000 ng/mL, the concentration at 4 h ([7]; 500 mg/kg, 500 mg/kg fed) was 8000 ng/mL and the concentration at 8 h ([7]; 500 mg/kg, 500 mg/kg fed) was 17000 ng/mL. For the same compound, the concentration at 4 h ([7]; 1000 mg/kg, 1000 mg/kg fasted) was 26000 ng/mL, the concentration at 8 h ([7]; 1000 mg/kg, 1000 mg/kg fasted) was 21000 ng/mL and the “oral dose reaching the blood” value ([7]; absorption from the gastrointestinal tract) was “approximately 2%”. The MIC (Aspergillus fumigatus; Aspergillus fumigatus) was 8 µg/mL (≈ 38.6 µM), the MMC (Aspergillus fumigatus) was 32 µg/mL and the MIC ([8]; Streptococcus pneumoniae, ATCC49619) was 16 µg/mL (≈ 77.2 µM). The MMC [8] was 32 µg/mL, the MIC ([9]; Staphylococcus aureus, 24 h) was 16 µg/mL (≈ 77.2 µM) and the MMC ([9]; Table 9, 35° C., 24 hours) was 16 µg/mL. The MMC ([9]; Table 17, 2 or 3 replicates) was 16 µg/mL, the MIC ([10]; Staphylococcus aureus, 24 h) was 16 µg/mL (≈ 77.2 µM) and the MMC ([10]; Table 9, 35° C., 24 hours) was 16 µg/mL. For the same compound, the MMC ([10]; Table 17, 2 or 3 replicates) was 16 µg/mL, the “Minimal % Compound (1) giving complete inhibition of test culture” value [11] was 0.015% and the MIC (Haemophilus influenzae; Haemophilus influenzae, Table 9, 35° C., 24 hours, read-out: MIC) was 0.125 µg/mL (≈ 0.603 µM). The MIC (Haemophilus influenzae; Haemophilus influenzae, Table 17, 2 or 3 replicates, read-out: MIC) was 0.125 µg/mL (≈ 0.603 µM), the MMC (Haemophilus influenzae; Table 9, 35° C., 24 hours) was 0.125 µg/mL and the MMC (Haemophilus influenzae; Table 17, 2 or 3 replicates) was 0.125 µg/mL. The MIC (Haemophilus influenzae; [14]) was 0.125 µg/mL (≈ 0.603 µM), the MMC (Haemophilus influenzae; [14]) was 0.125 µg/mL and the “Suppression of Growth (+/−)” value [12] was “+”. For the same compound, the MIC (Paecilomyces variotii; Paecilomyces variotii, read-out: MIC) was 1 µg/mL (≈ 4.83 µM), the MMC (Paecilomyces variotii) was 2 µg/mL and the “pH (in 50% v./v. ethanol)” value was “approximately neutral”. The “Log reduction in viable count” value (Enterococcus faecalis) was 0.6 at 9 h, the “Suppression of Growth (+/−)” value [13] was “+” and the MIC (Rhodotorula rubra; Table 20, […], after 12 weeks continuous exposure, read-out: MIC Final) was 16 µg/mL (≈ 77.2 µM). For the same compound, the MIC (Rhodotorula rubra; Table 20, […], parent strain, read-out: MIC Initial) was 8 µg/mL (≈ 38.6 µM), the MIC (Rhodotorula rubra; before exposure, MHB, read-out: Standard MIC Initial) was 8 µg/mL (≈ 38.6 µM) and the “7-Day MIC Range” value (Rhodotorula rubra; to Wk 5) was 8-32 to Wk 5 μg/mL.
